For assay [1], the target named is Recombinant human JAK1 catalytic domain (Homo sapiens (Human), UniProt P23458). In words: JAK1 inhibition assay. In kind it is biochemical. The settings on record: semi-quantitative score. The method in brief:
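Radiometric assay read by scintillation counting after phosphoric-acid washes. Percent inhibition calculated from cpm relative to vehicle and 10 μM staurosporine control. IC50 derived from compound dose-dilution series.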

Assay [2] concerns the target Recombinant human JAK2 catalytic domain (Homo sapiens (Human), UniProt O60674). Put plainly: JAK2 inhibition assay. In kind it is biochemical. The settings on record: semi-quantitative score. Put shortly:
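Radiometric kinase reactions ran for 90 min at 30 °C and were stopped with phosphoric acid, then washed and counted by scintillation. Percent inhibition was set relative to vehicle and to 10 μM staurosporine background. IC50 was derived from dose-dilution series.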

In assay [3] the test system is JAK-STAT signalling in HeLa cells. Put plainly: JAK-STAT signalling assay (OSM-triggered pSTAT1(2)-luciferase reporter in HeLa cells). It counts as cell-based. The settings on record: Homo sapiens; HeLa cells, OSM-triggered pSTAT1(2)-luciferase reporter; read-out: STAT signalling EC50. How it is done:
HeLa cells were maintained in Dulbecco's Modified Eagle's Medium (DMEM) containing 10% heat inactivated fetal calf serum, 100 U/mL penicillin and 100 μg/mL streptomycin. HeLa cells were used at 70% confluence for transfection. 20,000 cells in 87 μL cell culture medium were transiently transfected with 40 ng pSTAT1(2)-luciferase reporter (Panomics), 8 ng of LacZ reporter as internal control reporter and 52 ng of pBSK using 0.32 μL Jet-PEI (Polyplus) as transfection reagent per well in 96-well plate format. After overnight incubation at 37° C., 10% CO2, transfection medium was removed.
40 μL of cell lysate was used to read β-galactosidase activity by adding 180 μL βGal solution (30 μl ONPG 4 mg/mL+150 μL β-Galactosidase buffer (0.06 M Na2HPO4, 0.04 M NaH2PO4, 1 mM MgCl2)) for 20 min.
Luciferase activity was measured using 40 μL cell lysate plus 40 μl of Steadylite® as described by the manufacturer (Perkin Elmer), on the Envision (Perkin Elmer).
The positive and negative controls were used to calculate z’ and ‘percent inhibition’ (PIN) values.
PIN values were plotted for compounds tested in dose-response and EC50 values were derived.
In general terms: A reporter such as luciferase makes a cellular process visible.

The test system of the next assay is MMP13 in SW1353 cells. In words: OSM/IL-1β signaling assay (MMP13 levels in SW1353 cells).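 Also: secreted MMP13 captured by antibody, activated with APMA and its activity read by fluorescence, inhibition scaled between vehicle-treated triggered wells (0%) and untriggered wells (100%).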 As to conditions: Homo sapiens; SW1353 cells, OSM and IL-1β triggered, MMP13 levels 48 hours after triggering; read-out: MMP13 EC50. It counts as cell-based.

We go through 10 compounds from patent US10206907B2, “Compounds useful for the treatment of degenerative and inflammatory diseases” (GALAPAGOS NV, priority 2008, dated 2019).

Each structure is given as a SMILES string.

Chain of Recombinant human JAK1 catalytic domain (P23458 850-1154): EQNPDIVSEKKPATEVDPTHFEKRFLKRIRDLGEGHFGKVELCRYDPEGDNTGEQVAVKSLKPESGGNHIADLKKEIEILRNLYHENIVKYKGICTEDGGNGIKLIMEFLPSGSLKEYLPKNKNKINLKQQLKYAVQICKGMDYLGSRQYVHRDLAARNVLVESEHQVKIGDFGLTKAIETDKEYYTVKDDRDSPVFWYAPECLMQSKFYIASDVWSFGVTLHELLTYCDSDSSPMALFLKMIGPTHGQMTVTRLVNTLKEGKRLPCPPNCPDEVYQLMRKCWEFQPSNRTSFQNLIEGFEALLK
Chain of Recombinant human JAK2 catalytic domain (O60674 808-1132): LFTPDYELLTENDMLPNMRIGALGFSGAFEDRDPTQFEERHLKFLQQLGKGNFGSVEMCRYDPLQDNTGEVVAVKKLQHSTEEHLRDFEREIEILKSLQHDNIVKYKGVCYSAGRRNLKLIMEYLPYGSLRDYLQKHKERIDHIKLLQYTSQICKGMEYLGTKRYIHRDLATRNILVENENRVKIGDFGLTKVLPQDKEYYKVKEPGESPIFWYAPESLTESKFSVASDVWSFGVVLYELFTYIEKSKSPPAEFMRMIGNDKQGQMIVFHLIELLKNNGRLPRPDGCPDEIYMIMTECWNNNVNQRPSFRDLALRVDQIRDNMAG
Method for MMP13 in SW1353 cells: The cells were seeded in 96 well plates at 15,000 cells/well in a volume of 120 μL DMEM (Invitrogen) containing 10% (v/v) FBS and 1% penicillin/streptomycin (InVitrogen) incubated at 37° C. […] MMP13 activity was measured using an antibody capture activity assay. […] Next the wells were washed twice with PBS+0.05% Tween followed by MMP13 activation by addition of 35 μL of a 1.5 mM 4-Aminophenylmercuric acetate (APMA) (Sigma, A9563) solution and incubation at 37° C. for 1 hour. […] Percentage inhibition=((fluorescence determined in the presence of vehicle−fluorescence determined for sample with test compound present) divided by (fluorescence determined in the presence of vehicle−fluorescence determined for sample without trigger))*100%.

The term IC50 denotes the concentration that inhibits the measured activity by half. Broadly, the EC50 is the concentration needed to bring the measured effect to its halfway point. For `O=C(Nc1ccc(-c2cccc3nc(NC(=O)C4CC4)nn23)cc1)c1ccc(C(F)(F)F)cc1` [Compound 22, N-(4-(2-(cyclopropanecarboxamido)-[1,2,4]triazolo[1,5-a]pyridin-5-yl)phenyl)-4-(trifluoromethyl)benzamide], the IC50 in assay [1] and in assay [2] was 101 to 500 nM in each case. Moreover, the EC50 (in assay [3]; in the assay on MMP13 in SW1353 cells) was over 1000 nM in each case.
For the compound `O=C(Nc1nc2cccc(-c3ccc(C(=O)N4CCOCC4)cc3)n2n1)C1CC1` [Compound 24, N-(5-(4-(morpholine-4-carbonyl)phenyl)-[1,2,4]triazolo[1,5-a]pyridin-2-yl)cyclopropanecarboxamide], the IC50 in assay [1] and in assay [2] was 101 to 500 nM each time. Also, in the assay on MMP13 in SW1353 cells, the EC50 was over 1000 nM.
On to `CN1CCC(NC(=O)c2ccc(-c3cccc4nc(NC(=O)C5CC5)nn34)cc2)CC1` [Compound 32, 4-(2-(cyclopropanecarboxamido)-[1,2,4]triazolo[1,5-a]pyridin-5-yl)-N-(1-methylpiperidin-4-yl)benzamide], for which the figures for the IC50 in assay [1] and in assay [2] were 501 to 1000 nM and over 1000 nM, respectively. For the same compound, in the assay with MMP13 in SW1353 cells, the EC50 is over 1000 nM.
For `O=C(Nc1nc2cccc(-c3ccc(NS(=O)(=O)c4ccccc4)cc3)n2n1)C1CC1` [Compound 79, N-(5-(4-(phenylsulfonamido)phenyl)-[1,2,4]triazolo[1,5-a]pyridin-2-yl)cyclopropanecarboxamide], the IC50 in assay [1] is under 100 nM. Besides, the EC50 in assay [3] is over 1000 nM; in the assay with MMP13 in SW1353 cells, 501 to 1000 nM.
The corresponding values for `CC1CCN(C(=O)c2ccc(-c3cccc4nc(NC(=O)C5CC5)nn34)cc2)CC1` [Compound 146, N-(5-(4-(4-methylpiperidine-1-carbonyl)phenyl)-[1,2,4]triazolo[1,5-a]pyridin-2-yl)cyclopropanecarboxamide] are under 100 nM, over 1000 nM and over 1000 nM.
The corresponding values for `O=C(Nc1nc2cccc(-c3ccc(OCc4ccc(-c5nnn[nH]5)nc4)cc3)n2n1)C1CC1` [Compound 183, Cyclopropanecarboxylic Acid (5-{4-[6-(2H-tetrazol-5-yl)-pyridin-3-ylmethoxy]-phenyl}-[1,2,4]triazolo[1,5-a]pyridin-2-yl)-amide] are under 100 nM, over 1000 nM and over 1000 nM.
The like results for `CC(=O)NC1CN(C(=O)c2ccc(-c3cccc4nc(NC(=O)C5CC5)nn34)cc2)C1` [Compound 287, Cyclopropanecarboxylic acid {5-[4-(3-acetylamino-azetidine-1-carbonyl)-phenyl]-[1,2,4]triazolo[1,5-a]pyridin-2-yl}-amide] were, in that order, under 100 nM, over 1000 nM and over 1000 nM.
With `O=C(Nc1nc2cccc(-c3ccc(C(=O)N4CC(N5CCOCC5)C4)cc3)n2n1)C1CC1` [Compound 326, Cyclopropanecarboxylic acid {5-[4-(3-morpholin-4-yl-azetidine-1-carbonyl)-phenyl]-[1,2,4]triazolo[1,5-a]pyridin-2-yl}-amide], the IC50 in assay [1] was 101 to 500 nM; in assay [2], over 1000 nM. Further, the EC50 in assay [3] was over 1000 nM.
Take `CN(C)C1CN(C(=O)c2ccc(-c3cccc4nc(NC(=O)C5CC5)nn34)cc2)C1` [Compound 327, Cyclopropanecarboxylic acid {5-[4-(3-dimethylamino-azetidine-1-carbonyl)-phenyl]-[1,2,4]triazolo[1,5-a]pyridin-2-yl}-amide]: the results for the half-inhibitory concentration (IC50) in assay [1] and in assay [2] were 101 to 500 nM and over 1000 nM, respectively. In assay [3], the EC50 is over 1000 nM.
`CN(C)CC1CN(C(=O)c2ccc(-c3cccc4nc(NC(=O)C5CC5)nn34)cc2)C1` [Compound 329, Cyclopropanecarboxylic acid {5-[4-(3-dimethylaminomethyl-azetidine-1-carbonyl)-phenyl]-[1,2,4]triazolo[1,5-a]pyridin-2-yl}-amide]: the results for the IC50 in assay [1] and in assay [2] were 101 to 500 nM and over 1000 nM, respectively. The concentration giving a half-maximal response (EC50) in assay [3] was over 1000 nM.
